Data as given in US10647680B2, “Urea compound, preparation method therefor and medical use thereof” (Ancureall Pharmaceutical (Shanghai) Co., Ltd., priority 2016, dated 2020).

What was measured:
[1] = tested on: MV4-11 (FLT3 ITD+/+ mutant type); test: In vitro growth inhibition (GI50), MV4-11; format: cell-based, human; settings: Homo sapiens, MV4-11; Cell lines of leukemia; read-out: GI 50 MV4-11 FLT3 (ITD +/+)
[2] = tested on: OCI-AML3 (NPMc+ mutant type); test: In vitro growth inhibition (GI50), OCI-AML3; format: cell-based; settings: Homo sapiens, OCI-AML-3; Cell lines of leukemia; read-out: GI 50 OCI- AML3 NPMc+
[3] = tested on: U937 (FLT3 wild-type); test: In vitro growth inhibition (GI50), U937; format: cell-based; settings: Homo sapiens, U-937; Cell lines of leukemia; read-out: GI 50 U937 FLT 3(WT)
[4] = tested on: MOLM-13 (FLT3 ITD+/− mutant type); test: In vitro growth inhibition (GI50), MOLM-13; format: cell-based, human; settings: Homo sapiens, MOLM-13; Cell lines of leukemia; read-out: GI 50 MOLM-13 FLT3 (ITD+/−)
[5] = tested on: K562 (FLT3 negative expression, positive expression of BCR-ABL fusion protein); test: In vitro growth inhibition (GI50), K562; format: cell-based; settings: Homo sapiens, Cell lines of leukemia, read-out: GI 50 K562 BCR-ABL
[6] = tested on: KG-1 (expressing FGFR1OP2-FGFR1 fusion protein); test: In vitro growth inhibition (GI50), KG-1; format: cell-based; settings: Homo sapiens; Cell lines of leukemia; read-out: GI 50 KG-1 FGFR1OP 2-FGFR1
[7] = tested on: RAMOS (positive expression of Brutons tyrosine protein kinase); test: In vitro growth inhibition (GI50), RAMOS; format: cell-based; settings: Homo sapiens, Cell lines of leukemia, read-out: GI 50 Ramos BTK
[8] = tested on: Kasumi-1 (c-Kit N822K mutant type); test: In vitro growth inhibition (GI50), Kasumi-1; format: cell-based; settings: Homo sapiens, Cell lines of leukemia, read-out: GI 50 Kasumi-1 Kit (N822K)
How it was run: (§1)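 After 3–5 days of treatment (top concentration 5,000 nM, serially diluted 2- or 10-fold to 0.01 nM, solvent ≤1%), viability was read by CCK8 at OD450. Growth rate was normalised to the time-zero and solvent-control wells, and GI50 was derived from the curve. Cultures in RPMI1640 + 10% FBS.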

[9] = tested on: RS4; 11 (FLT3 wild type); test: In vitro growth inhibition (GI50), RS4; 11; format: cell-based, human; settings: Homo sapiens, RS4-11; Cell lines of leukemia; read-out: GI 50 RS4: 11 FLT3 (WT)
[10] = tested on: HL-60 (FLT3 wild type); test: In vitro growth inhibition (GI50), HL-60; format: cell-based; settings: Homo sapiens, Cell lines of leukemia, read-out: GI 50 HL60 FLT3 (WT)
How it was run: as §1

Row | GI50 [1] [µM] | GI50 [2] [µM] | GI50 [3] [µM] | GI50 [4] [µM] | GI50 [5] [µM] | GI50 [7] [µM] | GI50 [9] [µM] | GI50 [10] [µM] | SMILES | GI50 [6] [µM] | GI50 [8] [µM]
1 | 0.001 to 0.01 | > 1 | > 1 | 0.001 to 0.01 | 0.1 to 1 | > 1 | 0.1 to 1 | > 1 | CCOC(=O)c1ccc(-n2nc(C(C)(C)C)cc2NC(=O)Nc2ccc(-n3cnc4ccccc43)cc2)cc1 [Compound 111, ethyl 4-{5-[3-(4-benzimidazol-1-yl-phenyl)-carbamido]-3-tert-butyl-pyrazol-1-yl}-benzoate] | > 1 | > 1
2 | 0.1 to 1 | > 1 | > 1 | 0.1 to 1 | > 1 | > 1 | > 1 | > 1 | Nc1cc(C2CC2)nn1C(=O)Nc1ccc(-n2cnc3ccccc32)cc1 [Compound 114, 5-amino-3-cyclopropylpyrazol-1-formic acid (4-benzimidazol-1-yl-phenyl)-amide] | > 1 | > 1
3 | 0.1 to 1 | 0.1 to 1 | > 1 | 0.1 to 1 | > 1 | > 1 | > 1 | > 1 | Nc1cc(C(F)(F)F)nn1C(=O)Nc1ccc(-n2cnc3ccccc32)cc1 [Compound 115, 5-amino-3-trifluoromethylpyrazol-1-carboxylic acid (4-benzimidazol-1-yl-phenyl)-amide] | > 1 | > 1
4 | 0.001 to 0.01 | > 1 | > 1 | 0.001 to 0.01 | > 1 | > 1 | > 1 | > 1 | CN1CCN(CCCOc2ccc3c(c2)ncn3-c2ccc(NC(=O)n3nc(C(C)(C)C)cc3N)cc2)CC1 [Compound 118, 5-amino-3-tert-butyl-pyrazol-1-carboxylic acid (4-{5-[3-(4-methyl-piperazin-1-yl)-propoxyl]-benzimidazol-1-yl}-phenyl)-amide] | > 1 | > 1
5 | 0.001 to 0.01 | > 1 | > 1 | 0.001 to 0.01 | > 1 | > 1 | > 1 | > 1 | CC(C)(C)c1cc(N)n(C(=O)Nc2ccc(-n3cnc4cc(OCCN5CCOCC5)ccc43)cc2)n1 [Compound 119, 5-amino-3-tert-butyl-pyrazol-1-carboxylic acid {4-[5-(2-morpholin-4-yl-ethoxyl)-benzimidazol-1-yl]-phenyl}-amide] | > 1 | > 1
6 | 0.001 to 0.01 | 0.1 to 1 | > 1 | 0.001 to 0.01 | > 1 | > 1 | > 1 | > 1 | COCCOc1ccc2c(c1)ncn2-c1ccc(NC(=O)n2nc(C(C)(C)C)cc2N)cc1 [Compound 120, 5-amino-3-tert-butyl-pyrazol-1-carboxylic acid {4-[5-(2-methoxyl-ethoxyl)-benzimidazol-1-yl]-phenyl}-amide] | 0.1 to 1 | > 1
7 | 0.001 to 0.01 | > 1 | > 1 | 0.001 to 0.01 | > 1 | > 1 | > 1 | > 1 | CC(C)(C)c1cc(N)n(C(=O)Nc2ccc(-n3cnc4cc(OCC5CCCO5)ccc43)cc2)n1 (stereo not shown) [Compound 123, 5-amino-3-tert-butyl-pyrazol-1-carboxylic acid {4-[5-(tetrahydro-furan-2-ylmethoxy)-benzimidazol-1-yl]-phenyl}-amide] | > 1 | > 1
8 | > 1 | 0.1 to 1 | > 1 | > 1 | > 1 | > 1 | > 1 | > 1 | CCOC(=O)COc1ccc2c(c1)ncn2-c1ccc(NC(=O)n2nc(C(C)(C)C)cc2N)cc1 [Compound 124, ethyl (1-{4-[(5-amino-3-tert-butyl-pyrazol-1-carbonyl)-amino]-phenyl}-1H-benzimidazol-5-yloxy)-acetate] | > 1 | > 1
9 | 0.01 to 0.1 | > 1 | > 1 | 0.01 to 0.1 | > 1 | > 1 | > 1 | > 1 | CC(C)(C)c1cc(N)n(C(=O)Nc2ccc(-n3cnc4cc(F)ccc43)cc2)n1 [Compound 125, 5-amino-3-tert-butyl-pyrazol-1-carboxylic acid [4-(5-fluoro-benzimidazol-1-yl)-phenyl]-amide] | > 1 | > 1
10 | 0.01 to 0.1 | > 1 | > 1 | 0.01 to 0.1 | > 1 | > 1 | > 1 | > 1 | CC(C)(C)c1cc(N)n(C(=O)Nc2ccc(-n3cnc4cc(C(F)(F)F)ccc43)cc2)n1 [Compound 126, 5-amino-3-tert-butyl-pyrazol-1-carboxylic acid [4-(5-trifluoromethyl-benzimidazol-1-yl)-phenyl]-amide] | > 1 | > 1
11 | 0.1 to 1 | > 1 | > 1 | 0.1 to 1 | > 1 | > 1 | > 1 | > 1 | CNC(=O)c1cc(Oc2ccc3c(c2)ncn3-c2ccc(NC(=O)n3nc(C(C)(C)C)cc3N)cc2)ccn1 [Compound 127, 4-(1-{4-[(5-amino-3-tert-butyl-pyrazol-1-carbonyl)-amino]-phenyl}-1H-benzimidazol-5-yloxy)-pyridin-2-carboxylic acid methylamide] | > 1 | > 1
12 | 0.01 to 0.1 | > 1 | > 1 | 0.01 to 0.1 | > 1 | > 1 | > 1 | > 1 | COCCOc1ccc2ncn(-c3ccc(NC(=O)n4nc(C(C)(C)C)cc4N)cc3)c2c1 [Compound 128, 5-amino-3-tert-butyl-pyrazol-1-carboxylic acid {4-[6-(2-methoxyl-ethoxyl)-benzimidazol-1-yl]-phenyl}-amide] | > 1 | > 1
13 | 0.1 to 1 | > 1 | > 1 | 0.1 to 1 | > 1 | > 1 | > 1 | > 1 | CC(C)(C)c1ccn(C(=O)Nc2ccc(-n3cnc4ccccc43)cc2)n1 [Compound 130, 3-tert-butyl-pyrazol-1-carboxylic acid (4-benzimidazol-1-yl-phenyl)-amide] | > 1 | > 1
14 | 0.1 to 1 | > 1 | > 1 | 0.1 to 1 | > 1 | > 1 | > 1 | > 1 | Cc1noc(NC(=O)Nc2ccc(-n3cnc4ccccc43)cc2)c1C [Compound 131, 1-(4-benzimidazol-1-yl-phenyl)-3-(3,4-dimethyl-isoxazol-5-yl)-urea] | > 1 | > 1
15 | 0.01 to 0.1 | 0.1 to 1 | > 1 | 0.01 to 0.1 | > 1 | > 1 | > 1 | > 1 | CC(C)c1cc(NC(=O)Nc2ccc(-n3cnc4ccccc43)cc2)on1 [Compound 132, 1-(4-benzimidazol-1-yl-phenyl)-3-(3-isopropyl-isoxazol-5-yl)-urea] | > 1 | > 1
16 | 0.001 to 0.01 | > 1 | > 1 | 0.001 to 0.01 | > 1 | > 1 | > 1 | > 1 | CC(C)(C)c1cc(NC(=O)Nc2ccc(-n3cnc4ccccc43)cc2)on1 [Compound 133, 1-(4-benzimidazol-1-yl-phenyl)-3-(3-tert-butyl-isoxazol-5-yl)-urea] | > 1 | > 1
